pIC50: −log10 of the molar value. ≈ marks a conversion by molar mass, not a printed value. Calls of active or inactive are those of the source. The rule behind the calls is not given here.
Key:
Escherichia coli [1] = experiment: Antibacterial activity against Escherichia coli assessed as bacterial growth inhibition measured after 24 hrs by broth dilution assay; format: functional, organism-based; conditions: for pIC50: 24 h; for MIC: time 24 hrs
Staphylococcus aureus [2] = experiment: Antibacterial activity against Staphylococcus aureus assessed as bacterial growth inhibition measured after 24 hrs by broth dilution assay; format: functional, organism-based; conditions: for pIC50: 24 h; for MIC: time 24 hrs
Staphylococcus aureus [3] = experiment: Antibacterial activity against Staphylococcus aureus assessed as minimum concentration required to decrease 90% bacteria measured after 24 hrs by broth dilution assay; format: functional
Escherichia coli [4] = experiment: Antibacterial activity against Escherichia coli assessed as minimum concentration required to decrease 90% bacteria measured after 24 hrs by broth dilution assay; format: functional
Staphylococcus aureus [5] = experiment: Antibacterial activity against Staphylococcus aureus assessed as zone of inhibition at 25 to 100 ug by disc diffusion method; format: functional, organism-based; conditions: dose 25-100 µg
Cell membrane [6] = experiment: Induction of cell membrane permeabilization in Escherichia coli assessed as increase in propidium iodide intake at MIC by propidium iodide staining based assay; conditions: TDE = time-dependent effect
Escherichia coli [7] = experiment: Antibacterial activity against Escherichia coli assessed as zone of inhibition at 25 to 100 ug by disc diffusion method; format: functional, organism-based; conditions: dose 25-100 µg
[8] = Cytotoxicity against human HEK293 cells assessed as viable cells at 50 uM after 48 hrs by calcein-AM staining based fluorescence analysis; format: cell-based; conditions: read-out: Activity
Cell membrane [9] = experiment: Induction of cell membrane permeabilization in Staphylococcus aureus assessed as increase in propidium iodide intake at MIC by propidium iodide staining based assay; conditions: time 48.0 hrs, TDE = time-dependent effect

SMILES	pIC50 (Escherichia coli [1])	pIC50 (Staphylococcus aureus [2])	MIC (Escherichia coli [1]) [µM]	MIC (Staphylococcus aureus [2]) [µM]	MBC (Staphylococcus aureus [3]) [µM]	MBC (Escherichia coli [4]) [µM]	inhibition (Staphylococcus aureus [5])	Activity (Cell membrane [6])	inhibition (Escherichia coli [7])	viability at 48 h, 50 µM [8] [%]	Activity (Cell membrane [9])
CC1(C)S[C@@H]2[C@H](NC(=O)[C@H](N)c3ccccc3)C(=O)N2[C@H]1C(=O)O [AMPICILLIN]	4.47	5.42									
COc1c(Br)cc(Br)c(/C=C/C(=O)NCCCNCc2cccc(CNCCCNC(=O)/C=C/c3c(Br)cc(Br)c(OC)c3Br)c2)c1Br			> 200	> 200							
COc1cc(/C=C\C(=O)NCCCNCc2cccc(CNCCCNC(=O)/C=C\c3cc(OC)c(Br)cc3Br)c2)c(Br)cc1Br	4.43	4.86	25 (≈ 22.2 µg/mL)	50 (≈ 44.3 µg/mL)	50 (≈ 44.3 µg/mL)	25 (≈ 22.2 µg/mL)	Active	Tde	Active	> 95	Tde
COc1c(Br)cc(/C=C/C(=O)NCCCNCc2cccc(CNCCCNC(=O)/C=C/c3cc(Br)c(OC)c(Br)c3)c2)cc1Br			> 200	> 200							
